Experiments:
[1] = system: tumor biopsies; experiment: RNA-Seq differential gene expression / GSEA of paired tumor biopsies; format: in vivo, human; conditions: after 2 weeks of ceralasertib
Method: Eight paired tumor biopsies were analyzed from 3 patients with PR, 4 with SD, and 1 NE, treated at various dose levels. Additional baseline samples were also available for 1 PR and 1 SD. When all samples were considered together, there were few differences in differential gene expression between baseline and on-treatment biopsies (Figure 5A). However, when responders (PR) were compared with nonresponders (SD), there were marked differences in both baseline and on-treatment gene expression (Figure 5, B–E) with clustering of a number of differentially expressed genes according to response (Supplemental Figure 8). […]
Formalin fixed paraffin-embedded tumor samples were used. […] H-score was calculated using HALO image analysis (Indica Labs). […] Nuclear ATM (Abcam 32420) IHC staining was carried out on the Ventana autostainer, using DAB detection and assessed by H-score, but samples were only deemed acceptable if lymphocyte staining (internal control) was at least 2+ (moderate) intensity. Cyclin E1 (Invitrogen HE12) staining was carried out on the Ventana autostainer, using DAB detection and the H-score was quantified using HALO image analysis (Indica Labs). Ki67 (Mib-1, Dako M7240) was scored by percent nuclear positivity using a global unweighted method, scoring 4 areas of 100 cells. […] Quantification of tumor-infiltrating lymphocytes was done using a semi-automated method in QuPath (53). […]

[2] = system: ATR; conditions: preclinical; cited from earlier work
[3] = system: γH2AX; experiment: PBMC γH2AX immunofluorescence (% cells with >5 foci); format: in vivo, human; conditions: after treatment at the RP2D, most subjects
Method: PD sampling took place at baseline (within 7 days prior to dosing) and between days 15 and 22 of dosing (day 14 for intermittent dosing cohorts). PD samples included PBMCs and tumor biopsies. PBMCs were analyzed by immunofluorescence for γ^(S139)H2AX, p-^(S345)Chk1, and total Chk1, as described in Supplemental Methods. Paired tumor biopsies were formalin fixed and analyzed for nuclear p-^(S635)Rad50 and γH2AX by IHC.
PBMCs were isolated from blood using BD Vacutainer® CPT™ Cell preparation tubes with sodium citrate (BD Biosciences, Wokingham, UK) and fixed with 4% formalin containing 1% Triton™ X-100 (Sigma-Aldrich, St. Louis, MO). […] A Carl Zeiss LSM 700 confocal laser scanning fluorescence microscope (Zeiss, Jena, Germany) was used to visualize and capture images of the PBMCs. Fluorescent nuclear intensity for phospho-(S345) and total Chk1 in individual PBMC cells were quantified using the IN Cell Investigator Developer Toolbox v1.9 software (GE Healthcare Biosciences, Piscataway, NJ). For the phospho(S345)- and total Chk1 assays: the raw data values (fluorescent nuclear intensity for PBMCs), the percentage change for phospho(S345) biomarker was calculated for each subject by comparing the levels measured at each post-dose time point to pre-dose levels measured at baseline. […]
Peripheral blood was drawn into 8 mL EDTA tubes (Vacutainer, BD) and analyzed within 24 hours. […]

## C[C@@H]1COCCN1c1cc(C2([S@](C)(=N)=O)CC2)nc(-c2cc[nH]c3nccc2-3)n1 [ceralasertib]
[1]
  Inflammatory response genes (GSEA), on-treatment versus baseline tumor samples: enrichment
[2]
  IC90: […]
[3]
  γH2AX positivity in PBMCs: Increased

— paper PMC10786692 (The Journal of Clinical Investigation, 2024)
